Reference: patent US6166085A, “Method of producing analgesia” (priority 1996, dated 2000)
“Also recorded” adds a separate entry of the source.

What was measured:
allodynia [1] = assay: Tactile allodynia (paw withdrawal threshold, % MPE) in L5/L6 spinal nerve ligated rats, Example 3; assay type: in vivo, Harlan Sprague-Dawley rats; details: for effect on allodynia, IV (in words) / Emax at 20 mg/kg: 20 mg/kg; for Emax at 20 mg/kg: Rattus norvegicus, 1 h, IV, 3-OH L in DMSO (p=0.006 vs DMSO, N=4), MEGX over 60 minutes (P=NS vs saline), read-out: maximum effect on PWT (% MPE), IV
Description: Male Harlan Sprague-Dawley rats were used (100-200 g). Rats were housed 2-3 to a cage with corn cob bedding and Purina rat chow and water ad libitum, in a standard facility with a 12 h/12 h day/night cycle. After surgical procedures involving chronic indwelling catheter insertion, animals were housed singly to prevent catheter damage.
Rats were allowed to recover 5-7 days before further testing or surgeries.
The catheters were 9 cm in intrathecal length and terminated near the lumbar enlargement. The rostral 3 cm of catheter was tunneled under the skin to externalize between the ears. Rats with neurologic deficits were discarded.
For intravascular access, external jugular catheters were fashioned from PE-50 tubing and inserted into an external jugular vein under halothane/oxygen anesthesia. Arterial catheters were also fashioned from PE-50 with a small bouton 1 cm from the intravascular end for suture securing; they were inserted into a carotid artery, taking care to spare the surrounding nerves. All catheters were flushed with heparinized saline (10 U/ml) and tunneled subcutaneously to emerge at the posterior base of the neck, and capped when not in use.
Monoethylglycinexylidide (MEGX) and 3-hydroxy monoethyl-glycinexylidide (3-OH MEGX) were dissolved in physiologic saline; 3-hydroxylidocaine (3-OH L) was dissolved in DMSO for intravenous administration.
(§1) Intravenous drugs were delivered to awake, unrestrained rats by slow infusion using a syringe pump (Harvard apparatus 22). Intrathecal drugs were delivered to awake, briefly restrained rats in a volume of 10 μl, followed by 10 μl of vehicle flush, using a calibrated tubing extension with a 30-gauge adapter fitting the implanted intrathecal catheter, attached to a geared Hamilton 100 μl glass syringe. IT drug delivery was monitored by observing the advancement of a small air bubble down the tubing.
Rats were placed in a plastic cage with an open wire mesh bottom and allowed to accommodate for approximately fifteen minutes. […] In brief, von Frey hairs were sequentially applied using an up-and-down paradigm to the left mid-plantar hindpaw with sufficient force to cause slight filament buckling. Positive responses were noted if the paw was sharply withdrawn. […] Otherwise, PWT were calculated by noting the stimulus level at which the first change in behavior occurred, collecting four additional responses to the continued up-and-down oscillation of stimulus presentation around the response threshold, and interpolating the 50% response threshold. For some comparisons, raw thresholds were converted to percent of maximum possible effect (% MPE), designating pre-treatment PWT (baselines) as 0% effect, and assigning a cutoff value of 100% effect to thresholds ≥15 g: therefore, % MPE values near 100 indicate normal mechanical thresholds (i.e., at or near 15 g), whereas values near 0 indicate allodynia. The following equation was used to compute % MPE:
% MPE=new threshold(g)-baseline threshold(g)×100/ 15 grams--baseline
Plasma drug levels and PWT were correlated using linear regression. Serially measured PWT and % MPE were compared using repeated measures ANOVA with post-hoc testing.

[2] = Observation of motor dysfunction and overt behavior / side effects; assay type: in vivo, Sprague-Dawley rats; details: IT; for motor dysfunction, IT (in words): Example 3, lidocaine and MEGX 500 μg, 3-OH L 58 μg (highest dose soluble in vehicle)
Excerpt: Animals were also observed for the appearance of general motor dysfunction,as evidenced by inability to ambulate symmetrically and for any other overt signs of unusual activity.

[3] = tested on: sciatic nerve compound action potential; assay: Rat sciatic nerve compound action potential in vivo, direct application; design: species or system Harlan Sprague Dawley rats; details: for potency relative to lidocaine: compound action potential blockade; for blockade of sciatic nerve compound action potential (in words): direct application, lidocaine 2.5 mg, metabolites 5 mg, 10 min
Description: Male Harlan Sprague Dawley rats (300-350 g) were anesthetized with pentobarbital/diazepam. The sciatic nerves were sequentially and bilaterally exposed by sharp/blunt dissection from the popliteal region proximally. Electrodes were placed at the sciatic notch (stimulating), and the interossei (recording); a grounding electrode was applied remote from the field. Baseline compound action potential (CAP) (A alpha/beta) wave heights (mV) in response to stimulation 1× per minute were recorded for ten minutes to obtain a stable reference. One drug/vehicle solution was applied per nerve, at mid-nerve (mid-thigh) level, in a volume of 250 μl, and compound action potential wave height then was recorded 1× per minute for ten minutes after application.

allodynia [4] = details: cited from earlier work; for activity as metabolite with regard to allodynia suppression, earlier application: application Ser. No. 08/422,377
[5] = Plasma bupivacaine level and toxicity during IV infusion; assay type: in vivo, Harlan Sprague-Dawley rats
Description: as §1
For bupivacaine assays, samples were obtained by withdrawing and discarding approximately 0.3 cc of blood from arterial cannulae, and then withdrawing samples of approximately 0.5 cc volume. These samples were centrifuged and the plasma supernatant was frozen at -20° C. until analysis.
Bupivacaine was extracted from the thawed samples by solid-phase extraction chromatography )Chen Y et al., Therapeut Drug Monitor 14:317-321 (1992)). Sep-Pak C-18 (300 mg) cartridges were pre-conditioned with 4 ml of methanol and then 4 ml water. […]
Bupivacaine was quantitated by capillary GC with nitrogen-phosphorus detection )Bjork M et al., Journal of Chromatography 533:229-234 (1990)). […] Split injections (1.5:1) were performed with a Hewlett Packard 7673A automatic sampler, and the chromatograms were recorded and analyzed with H-P Chemstation (MSDOS) software. […]

mechanical allodynia = assay: Mechanical allodynia in rat model of peripheral neuropathy (L5/L6 spinal nerve ligation), intrathecal, Example 2; assay type: in vivo, Sprague-Dawley rats; details: 0.6 μmol intrathecal, pH 6.58
Description: Experiments carried out in support of the present invention were performed in a rat model of peripheral neuropathy detailed in Example 2. Briefly, in the model used, rats are subjected to a surgical procedure, described by Kim and Chung (1992), designed to reproducibly injure peripheral nerves (spinal nerves L5 and L6). These rats develop a hyperesthetic state, which can be measured using one or more paradigms known in the art. Here, allodynia was measured by stimulation of neuropathic rat hindlimb using wire hairs having graded degrees of stiffness.
[…]. Test solutions at pH 6.58 were administered intrathecally as described above. Mechanical allodynia was measured by pressing nylon filaments of varying diameters against the paw. Data are expressed in terms of 50% response threshold, which is the median buckling weight required to evoke paw withdrawal; the lower the stimulus level, the more severe the allodynia.
Male Sprague-Dawley rats (200-350 gm) were prepared with chronic lumbar intrathecal catheters inserted under halothane anesthesia (Yaksh and Rudy). Animals were placed in a prone position and the left paraspinal muscles were separated from the spinous processes at the L4 -S2 levels, as described by Kim et al. The left L5 and L6 nerve roots were exposed and tightly ligated with 6-0 surgical silk suture. The rats were allowed to recover from anesthesia. Allodynia was typically observed to occur beginning 1-2 days post surgery and continuing for as long as 45 days. For testing, animals were placed in plastic cubicles with open wire mesh bottoms. Compound dissolved in preservative-free saline solution was administered in a volume of 10 μl through the intrathecal catheter, followed by 10 μl saline to flush the catheter line. Animals were tested for allodynia at various time points after drug treatment, as described below.
To assess the threshold of a non-noxious stimulus required to produce a left hind paw withdrawal (allodynia), Von Frey hairs (ranging from 0.4-15 grams), were systematically applied to the surgically treated hind paw. Failure to evoke a response was cause to test the next stiffer hair. Evocation of a brisk withdrawal response was cause to test the next lower stimulus intensity. This paradigm was repeated according to a statistical method (Dixon, 1976) to define the 50% response threshold.
Data in FIG. 6 are expressed in terms of 50% response threshold, which is the median buckling weight required to evoke paw withdrawal; the lower the stimulus level, the more severe the allodynia. Allodynia thresholds, measured 30 minutes after injection, were plotted against dosage. Each point represents a value for a single animal.

Structure (SMILES)	effect on allodynia, IV (in words) (allodynia [1]; IV infusion)	Emax at 20 mg/kg (allodynia [1])	motor dysfunction, IT (in words) [2]	potency relative to lidocaine [3]	blockade of sciatic nerve compound action potential (in words) [3]	activity as metabolite with regard to allodynia suppression, earlier application (allodynia [4])	also measured
CCN(CC)CC(=O)Nc1c(C)ccc(O)c1C [3-OH L, 3-hydroxylidocaine]	both potent and effective at suppressing allodynia	76%	no motor dysfunction was seen	1/4	showed some activity	active metabolite with regard to allodynia suppression	MPE, IT 20 μg (allodynia [1]; IT, 20 (unit printed "l g")): 80.2±20%; MPE, IT 58 μg (allodynia [1]; IT, 58 (unit printed "l g")): 63±16%; local anesthetic (sodium channel blocking) activity ([3]; FIG. 12 legend): weaker local anesthetic than lidocaine
CCNCC(=O)Nc1c(C)cccc1C [MEGX, Monoethylglycinexylidide]	no effect	28%	transient motor dysfunction	approximately 1/3	showed some activity	not MEGX was an active metabolite with regard to allodynia suppression	suppression of allodynia after IT administration (summary) (allodynia [1]; IT): not MEGX, suppressed allodynia after IT administration; effect on allodynia / PWT, IT 500 μg (in words) (allodynia [1]; IT, 500 μg, after recovery of motor function): no effect on PWT; duration of motor dysfunction (hindquarter flaccidity / weakness) ([2]; 500 μg): 5 to 10 min; motor block / motor effects (summary) ([2]; 3-hydroxy MEGX at effective anti-allodynia dose, MEGX in excess): motor blockade
CCCCN1CCCCC1C(=O)Nc1c(C)cccc1C (stereo not drawn) [bupivacaine]	–	–	–	–	–	–	effect of intravenous bupivacaine on allodynia (allodynia [1]; IV infusion, 15 samples from 4 rats, P=0.11, linear regression): no effect on allodynia; also recorded: inactive against allodynia; toxicity (in words) [5]: evident toxicity as manifested by ataxia and lethargy; also recorded: Higher doses resulted in seizure; mean plasma level at seizure ([5]; N=4, unit not given): 7.4±0.7; effect of IV bupivacaine on allodynia, earlier literature (allodynia [4]; Biella G et al. 1992, centrally facilitated nociceptive processing): lack of effect of bupivacaine on centrally facilitated nociceptive processing
Cc1cccc(C)c1OCC(C)N (stereo not drawn) [mexiletine]	–	–	–	–	–	–	effect on mechanical allodynia (50% response threshold), 0.6 μmol (mechanical allodynia): did not block mechanical allodynia
